Measurements as given in US20120321609A1, “METHOD OF TREATING PSYCHOLOGICAL DISORDERS” (priority 2011, published 2012).
Ends that are not written are not given here.

Experiments:
[1] = target: T1, CRFR1 (Homo sapiens, UniProt P34998); assay: CRF-stimulated cAMP formation (cAMP-Glo) in HEK 293 cells with FLAG-5-HT2AR and HA-CRFR1; type: cell-based; settings: 5-HT 10 μM pretreatment 30 min
T1 construct: expressed in transfected cells; host or cells: HEK 293
T1 sequence (P34998 24-415): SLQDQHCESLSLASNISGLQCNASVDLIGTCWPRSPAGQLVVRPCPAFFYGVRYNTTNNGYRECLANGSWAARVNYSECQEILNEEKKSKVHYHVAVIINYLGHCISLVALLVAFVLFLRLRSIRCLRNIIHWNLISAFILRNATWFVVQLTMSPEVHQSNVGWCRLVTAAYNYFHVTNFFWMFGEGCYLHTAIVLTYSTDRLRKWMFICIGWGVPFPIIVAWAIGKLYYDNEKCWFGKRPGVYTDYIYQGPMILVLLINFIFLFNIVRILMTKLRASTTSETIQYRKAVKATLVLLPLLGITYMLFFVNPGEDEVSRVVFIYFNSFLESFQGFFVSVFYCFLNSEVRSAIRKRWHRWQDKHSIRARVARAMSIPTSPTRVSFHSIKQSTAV
Description: Briefly, HEK 293 cells transiently expressing FLAG-5-HT2AR and HA-CRFR1 were seeded into 96-well plate (10,000 cells/well). Two days after transfection, cells were incubated in the absence or presence of 10 μM 5-HT in induction buffer [HBSS, 500 μM isobutyl-1-methylxanthine (IBMX)] for 30 minutes at 37° C. […] Following stimulation, cells were solubilized with cAMP-Glo lysis buffer for 15 minutes with gentle shaking at room temperature. Lysates were carefully transferred to a white opaque 96-well plate and cAMP-Glo Detection solution containing protein kinase A was added for 20 minutes at room temperature followed by addition of Kinase-Glo Reagent for 10 min. Luminescence was measured using a Victor Reader (Perkin-Elmer, Walthan, Mass.).

[2] = system: mice; assay: Open field test (anxiety-related behaviour); type: in vivo, mouse; settings: 5 min test; CRF 1.5 μg into medial prefrontal cortex, DOI 0.15 mg/kg i.p.; vs vehicle-vehicle or single treatment
Description: Male CD-1 mice were obtained from Charles River Canada (St. Constant, Quebec) at 50-60 days of age, and were acclimatized to the laboratory for approximately 30 days before serving as experimental subjects. Mice were housed four per cage, until the time of surgery, after which they were housed individually. The vivarium was maintained on a 12-h light/dark cycle in a temperature (21° C.) controlled room with food and water freely available. Mice were anesthetized using isoflurane and stereotaxic surgery (David Kopf Instruments Model 940) was performed to install a cannulae into the medial prefrontal cortex. A Guide cannulae (Plastics One In), situated according to the mouse atlas of Franklin and Paxinos at Lateral=0.32 mm, D/V=2.25 mm, A/P=+2.68 mm. A dummy cannula, was inserted flush with guide. Approximately 1 week after behavioral testing mice were perfused with 4% paraformaldehyde. […]
In an initial test, mice were placed in a 45×45 cm open field, with an inner square of 21×24×24 cm., for a 5 min period, during which the time to enter the center area, and the total time spent in the center portion of the arena was recorded. […] Mice were individually placed in one of the enclosed arms of a plus-maze and the behavior of the animals was recorded over a 5 min period by a ceiling-mounted video camera. […]

[3] = system: mice; assay: Elevated plus maze test (anxiety-related behaviour); type: in vivo, mouse; settings: DOI doses 0.625 and 1.25; data not shown
[4] = system: mice; assay: as above; type: in vivo, mouse; settings: DOI 0.15 mg/kg i.p.; for entries to the closed arms of the plus maze: relative to vehicle
Description: Male CD-1 mice were obtained from Charles River Canada (St. Constant, Quebec) at 50-60 days of age, and were acclimatized to the laboratory for approximately 30 days before serving as experimental subjects. Mice were housed four per cage, until the time of surgery, after which they were housed individually. The vivarium was maintained on a 12-h light/dark cycle in a temperature (21° C.) controlled room with food and water freely available. Mice were anesthetized using isoflurane and stereotaxic surgery (David Kopf Instruments Model 940) was performed to install a cannulae into the medial prefrontal cortex. A Guide cannulae (Plastics One In), situated according to the mouse atlas of Franklin and Paxinos at Lateral=0.32 mm, D/V=2.25 mm, A/P=+2.68 mm. A dummy cannula, was inserted flush with guide. Approximately 1 week after behavioral testing mice were perfused with 4% paraformaldehyde. Brains were subsequently sectioned at 14 microns and stained with Cresyl violet for probe placement verification. Only the data from mice with correct probe placements were used in the analysis of the behavioral tests.
Drug diffusion was permitted for 5 min, and then after a further 5 min period mice were injected intraperotineally with DOI (Sigma) at a dose of 0.15 mg/kg or saline. Behavioral testing was conducted 15 min after the DOI treatment. In a second experiment the procedure was identical to that of the preceding study, except that mice were pretreated i.p. with either vehicle or 0.25 mg/kg of M100907 in a volume of 0.3 ml immediately prior to the DOI treatment. As in the preceding study mice were then tested in the elevated plus maze test (n=6-8)/group. Once again, data were obtained from videotapes and the researcher was blind as to the treatments mice had received.
In an initial test, mice were placed in a 45×45 cm open field, with an inner square of 21×24×24 cm., for a 5 min period, during which the time to enter the center area, and the total time spent in the center portion of the arena was recorded. The plus maze test was then conducted 1 min after the open field assessment. Mice were individually placed in one of the enclosed arms of a plus-maze and the behavior of the animals was recorded over a 5 min period by a ceiling-mounted video camera. The amount of time spent in each of the arms, the number of arm entries (an arm entry was defined as all four of the paws being placed in an arm of the plus-maze). The elevated plus-maze had two arms enclosed by 21 cm high walls; whereas the remaining two arms were open (arms were 24.8 cm long×7.7 cm wide). The maze was situated in a dimly lit room, such that the closed arms were darkened, whereas open arms were somewhat illuminated. All behavioural experiments were blinded. All experiments complied with the guidelines set by the Canadian Council on Animal Care and were approved by the Carleton University Animal Care Committee.

[5] = target: T2, 5-HT2AR (Homo sapiens, UniProt P28223); assay: 5-HT-stimulated inositol phosphate formation in HEK 293 cells transfected with FLAG-5-HT2AR and HA-CRFR1; type: cell-based; settings: for effect on the CRFR1-dependent increase in 5-HT2AR-stimulated inositol phosphate formation following CRF pretreatment: CRF 500 nM 30 min, monensin 100 μM 30 min, Tat peptide 1 h pretreatment, or co-expressed dominant-negative protein
T2 construct: expressed in transfected cells; host or cells: HEK 293

[6] = target: endogenous CRFR1 of mouse prefrontal cortex (mouse) (UniProt P35347)
[7] = target: HA-CRFR1
[8] = target: HA-CRFR1; remark: listed apart in the source
[9] = first experiment, CRF 1.5 μg into medial prefrontal cortex
[10] = second experiment (M100907 study), CRF 1.5 μg mPFC, M100907 0.25 mg/kg i.p.

T2 sequence (P28223 whole entry): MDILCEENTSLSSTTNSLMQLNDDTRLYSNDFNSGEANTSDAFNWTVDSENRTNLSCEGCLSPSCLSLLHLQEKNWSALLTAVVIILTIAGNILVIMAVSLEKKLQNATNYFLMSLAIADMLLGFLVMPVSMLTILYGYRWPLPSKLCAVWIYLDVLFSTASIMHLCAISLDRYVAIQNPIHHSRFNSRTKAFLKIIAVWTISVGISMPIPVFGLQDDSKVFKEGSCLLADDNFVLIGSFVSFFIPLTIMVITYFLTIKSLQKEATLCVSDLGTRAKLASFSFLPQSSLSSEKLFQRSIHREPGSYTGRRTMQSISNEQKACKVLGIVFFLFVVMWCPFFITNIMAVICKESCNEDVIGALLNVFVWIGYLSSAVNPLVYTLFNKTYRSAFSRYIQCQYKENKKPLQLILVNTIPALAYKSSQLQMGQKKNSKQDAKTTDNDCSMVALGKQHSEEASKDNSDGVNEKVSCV

In the case of `NCCc1c[nH]c2ccc(O)cc12` [5-HT, serotonin], the “effect of pretreatment on CRFR1 responsiveness (CRFR1-mediated cAMP formation)” value [1] is reported as “had no effect”.

With `COc1cc(CC(C)N)c(OC)cc1I` (stereo not shown) [DOI, 2,5-dimethoxy-4-iodoamphetamine] the “latency to enter the center square of open field” value [2] was “neither the CRF nor the DOI treatments alone influenced performance”, the “arm entries at significantly higher doses of DOI” value [3] was “elevated arm entries” and the “latency to enter an open arm of the plus maze” value [4, 9] was “modest reduction”. The “number of entries into the closed arms of the plus maze” value [4, 9] was “did not vary”, the “number of entries onto the open arms of the plus maze” value [4, 9] was “modest reduction” and the “frequency of open arm entries in the plus maze” value [4, 10] was “neither CRF nor DOI alone affected the frequency of open arm entries”. For the same molecule, the “latency to enter the open arms of the plus maze” value [4, 10] was “did not influence the latencies”, the “time spent in the closed arms of the plus maze” value [4, 10] was “unaffected” and the “entries to the closed arms of the plus maze” value [4, 10] was “increased closed arm entries”.

`COc1cccc([C@H](O)C2CCN(CCc3ccc(F)cc3)CC2)c1OC` [M100907] was tested, and the “frequency of open arm entries in the plus maze” value [4, 10] was “did not make any entries onto the open arm”, the “latency to enter the open arms of the plus maze” value [4, 10] was “none of the mice entered the open arms” and the “time spent in the closed arms of the plus maze” value [4, 10] was “increased”. For the same molecule, the “time spent in the open arms of the plus maze” value [4, 10] was “profoundly influenced” and the “entries to the closed arms of the plus maze” value [4, 10] was “reduced the frequency of arm entries”.

In the case of `CC[C@@]1([C@@H]2O[C@@H]([C@H]3O[C@@](O)(CO)[C@H](C)C[C@@H]3C)C[C@@H]2C)CC[C@H]([C@]2(C)CC[C@]3(C[C@H](O)[C@@H](C)[C@@H]([C@@H](C)[C@@H](OC)[C@H](C)C(=O)O)O3)O2)O1` [monensin], the “effect on the CRFR1-dependent increase in 5-HT2AR-stimulated inositol phosphate formation following CRF pretreatment” value (from here on “effect on the CRFR1-dependent increase”) [5] is reported as “attenuated the increase in 5-HT2AR signaling” and the “effect on 5-HT2AR signaling in the absence of CRF pretreatment” value ([5]; monensin 100 μM for 30 min, no CRF) is reported as “did not affect 5-HT2AR signaling”.

Work on SEEPPISLDLTFHLLREVLEMARAEQLAQQAHSNRKLMEII (ligand, UniProt P06850 154-194, looked up, species assumed, ends and bridges not checked) [corticotropin releasing factor (CRF) peptide] yielded a 5-HT-stimulated inositol phosphate formation in prefrontal cortex slices [6] of 2.3 fold, a cell surface expression of 5-HT2AR (biotinylation) [7] of 3.7 fold and a loss of cell surface HA-CRFR1 (flow cytometry) [8] of 24%.

B1: Rab11-S25N: dominant negative Rab11 protein inhibiting receptor recycling via slow recycling endosomes (protein, UniProt P62491 2-213, looked up, variant S25N)
Ras-related protein Rab-11A: GTRDDEYDYLFKVVLIGDSGVGKNNLLSRFTRNEFNLESKSTIGVEFATRSIQVDGKTIKAQIWDTAGQERYRAITSAYYRGAVGALLVYDIAKHLTYENVERWLKELRDHADSNIVIMLVGNKSDLRHLRAVPTDEARAFAEKNGLSFIETSALDSTNVEAAFQTILTEIYRIVSQKQMSDRRENDMSPSNNVVPIHVPPTTENKPKVQCC
With B1 the “effect on the CRFR1-dependent increase” value [5] was “but not the overexpression of Rab11-S25N, blocked the increase”.

B2: Dynamin I-K44A: dominant-negative inhibitor of clathrin-mediated endocytosis, expressed in cells (protein, UniProt Q05193 1-864, looked up, variant K44A)
Dynamin-1: MGNRGMEDLIPLVNRLQDAFSAIGQNADLDLPQIAVVGGQSAGASSVLENFVGRDFLPRGSGIVTRRPLVLQLVNATTEYAEFLHCKGKKFTDFEEVRLEIEAETDRVTGTNKGISPVPINLRVYSPHVLNLTLVDLPGMTKVPVGDQPPDIEFQIRDMLMQFVTKENCLILAVSPANSDLANSDALKVAKEVDPQGQRTIGVITKLDLMDEGTDARDVLENKLLPLRRGYIGVVNRSQKDIDGKKDITAALAAERKFFLSHPSYRHLADRMGTPYLQKVLNQQLTNHIRDTLPGLRNKLQSQLLSIEKEVEEYKNFRPDDPARKTKALLQMVQQFAVDFEKRIEGSGDQIDTYELSGGARINRIFHERFPFELVKMEFDEKELRREISYAIKNIHGIRTGLFTPDMAFETIVKKQVKKIREPCLKCVDMVISELISTVRQCTKKLQQYPRLREEMERIVTTHIREREGRTKEQVMLLIDIELAYMNTNHEDFIGFANAQQRSNQMNKKKTSGNQDEILVIRKGWLTINNIGIMKGGSKEYWFVLTAENLSWYKDDEEKEKKYMLSVDNLKLRDVEKGFMSSKHIFALFNTEQRNVYKDYRQLELACETQEEVDSWKASFLRAGVYPERVGDKEKASETEENGSDSFMHSMDPQLERQVETIRNLVDSYMAIVNKTVRDLMPKTIMHLMINNTKEFIFSELLANLYSCGDQNTLMEESAEQAQRRDEMLRMYHALKEALSIIGDINTTTVSTPMPPPVDDSWLQVQSVPAGRRSPTSSPTPQRRAPAVPPARPGSRGPAPGPPPAGSALGGAPPVPSRPGASPDPFGPPPQVPSRPNRAPPGVPSRSGQASPSRPESPRPPFDL
In the case of B2, the “effect on the CRFR1-dependent increase” value [5] is reported as “completely eliminated”.
